Assays:
[1] = Sumatriptan membrane assay (dodecane membrane between donor and acceptor cell); type: in vitro ADME; conditions: pH 9.0 to 10.0
Text: Topics Med. Chem., 1:277-351 (2001). This assay uses a lipid-coated membrane to predict lipid mucosal membrane penetration. The membrane apparatus consists of a dodecane membrane sandwiched between a donor and acceptor cell. The lipid-coated membrane is less porous then the mucous membrane of the oral cavity. Thus, the enhancement seen in the membrane assay is very likely to be magnified in vivo. […] The final pH values of these solutions were adjusted using freshly prepared 0.01 M sodium bicarbonate/sodium carbonate buffer. Permeation was measured by determining the concentration of sumatriptan in the acceptor cell, and is expressed as Pe (effective permeability in centimeters per second).

[2] = Dissociation constant (pKa) and extent of ionization; type: physicochemical
Text: Conversion of the ionized form to the un-ionized form for the 5-HT agonist is related to pH according to the formula: pH=pKa+Log10 (un-ionized concentration/ionized concentration). When the pH is the same as the pKa, equimolar concentrations of the un-ionized form and ionized form exist. […] As noted above, the un-ionized form is lipophilic and, therefore, more capable of passing through mucous membranes such as the oral mucosa than the ionized form, which is lipophobic in nature. Accordingly, increasing the pH of the saliva favors conversion of the ionized form into the un-ionized form for basic compounds such as the 5-HT agonists described herein, and the final pH can be determined by making use of the above formula. […] The final pH values of these solutions were adjusted using freshly prepared 0.01 M sodium bicarbonate/sodium carbonate buffer. Permeation was measured by determining the concentration of sumatriptan in the acceptor cell, and is expressed as Pe (effective permeability in centimeters per second).

## CNS(=O)(=O)Cc1ccc2[nH]cc(CCN(C)C)c2c1 [sumatriptan]
[1]
  change of effective permeability with pH: increased with pH
[2]; at pH 10.5
  un-ionized fraction: 90%
[2]; at pH 11.5
  un-ionized fraction: 100%
